How the values were obtained:
Assay in all cases: Kinase Profiler 10 μM panel
[1] = target: WNK4(h) (Homo sapiens (Human), UniProt Q96J92)
Method: (§1) In vitro kinase assays were conducted using Kinase Profiler services provided by Eurofins. The experimental method was as follows: the small molecule compound to be tested (0.001-10 μM), the protein kinase to be tested were incubated with a buffer containing substrate, 10 mM magnesium acetate, and [γ-^33P-ATP], the reaction was started by adding Mg\TPmix, after incubation for a period of time at room temperature, a 3% phosphate solution was added to the buffer to stop the reaction. Subsequently, 10 μL of the reaction mixture was quantitatively pipetted onto P30 filter paper, which was washed three times with 75 mM phosphate solution and then once with methanol. The P30 filter paper was air-dried and scintillation fluid was added for scintillation counting.

[2] = target: NEK7(h) (Homo sapiens (Human), UniProt Q8TDX7)
Method: as §1

[3] = target: STK33(h) (Homo sapiens (Human), UniProt Q9BYT3)
Method: as §1

[4] = target: Aurora-A(h) (Homo sapiens (Human), UniProt O14965)
Method: as §1

[5] = target: SGK2(h) (Homo sapiens (Human), UniProt Q9HBY8)
Method: as §1

[6] = target: CHK2(R145W)(h) (Homo sapiens (Human), UniProt O96017, R145W)
Method: as §1

[7] = target: CaMKIIγ(h) (Homo sapiens (Human), UniProt Q13555)
Method: as §1

[8] = target: MEKK2(h) (Homo sapiens (Human), UniProt Q9Y2U5)
Chain of MEKK2(h) (Q9Y2U5 whole entry): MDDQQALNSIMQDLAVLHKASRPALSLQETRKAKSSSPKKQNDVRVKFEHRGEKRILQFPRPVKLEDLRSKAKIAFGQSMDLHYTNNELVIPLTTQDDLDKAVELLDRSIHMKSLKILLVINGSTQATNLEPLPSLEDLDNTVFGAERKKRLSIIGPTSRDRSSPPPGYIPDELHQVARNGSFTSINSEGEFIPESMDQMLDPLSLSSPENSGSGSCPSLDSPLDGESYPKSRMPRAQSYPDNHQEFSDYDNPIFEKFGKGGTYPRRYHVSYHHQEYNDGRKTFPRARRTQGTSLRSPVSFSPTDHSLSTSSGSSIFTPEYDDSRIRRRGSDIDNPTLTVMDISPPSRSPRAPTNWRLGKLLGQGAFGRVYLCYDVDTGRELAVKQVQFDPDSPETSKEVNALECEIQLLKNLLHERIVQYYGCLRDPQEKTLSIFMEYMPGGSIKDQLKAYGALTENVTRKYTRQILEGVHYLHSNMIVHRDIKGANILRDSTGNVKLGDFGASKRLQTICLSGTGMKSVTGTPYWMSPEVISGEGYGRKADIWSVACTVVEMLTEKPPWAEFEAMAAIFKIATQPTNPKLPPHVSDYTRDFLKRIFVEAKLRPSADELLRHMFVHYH
Method: as §1

[9] = target: TYK2(h) (Homo sapiens (Human), UniProt P29597)
Chain of TYK2(h) (P29597 whole entry): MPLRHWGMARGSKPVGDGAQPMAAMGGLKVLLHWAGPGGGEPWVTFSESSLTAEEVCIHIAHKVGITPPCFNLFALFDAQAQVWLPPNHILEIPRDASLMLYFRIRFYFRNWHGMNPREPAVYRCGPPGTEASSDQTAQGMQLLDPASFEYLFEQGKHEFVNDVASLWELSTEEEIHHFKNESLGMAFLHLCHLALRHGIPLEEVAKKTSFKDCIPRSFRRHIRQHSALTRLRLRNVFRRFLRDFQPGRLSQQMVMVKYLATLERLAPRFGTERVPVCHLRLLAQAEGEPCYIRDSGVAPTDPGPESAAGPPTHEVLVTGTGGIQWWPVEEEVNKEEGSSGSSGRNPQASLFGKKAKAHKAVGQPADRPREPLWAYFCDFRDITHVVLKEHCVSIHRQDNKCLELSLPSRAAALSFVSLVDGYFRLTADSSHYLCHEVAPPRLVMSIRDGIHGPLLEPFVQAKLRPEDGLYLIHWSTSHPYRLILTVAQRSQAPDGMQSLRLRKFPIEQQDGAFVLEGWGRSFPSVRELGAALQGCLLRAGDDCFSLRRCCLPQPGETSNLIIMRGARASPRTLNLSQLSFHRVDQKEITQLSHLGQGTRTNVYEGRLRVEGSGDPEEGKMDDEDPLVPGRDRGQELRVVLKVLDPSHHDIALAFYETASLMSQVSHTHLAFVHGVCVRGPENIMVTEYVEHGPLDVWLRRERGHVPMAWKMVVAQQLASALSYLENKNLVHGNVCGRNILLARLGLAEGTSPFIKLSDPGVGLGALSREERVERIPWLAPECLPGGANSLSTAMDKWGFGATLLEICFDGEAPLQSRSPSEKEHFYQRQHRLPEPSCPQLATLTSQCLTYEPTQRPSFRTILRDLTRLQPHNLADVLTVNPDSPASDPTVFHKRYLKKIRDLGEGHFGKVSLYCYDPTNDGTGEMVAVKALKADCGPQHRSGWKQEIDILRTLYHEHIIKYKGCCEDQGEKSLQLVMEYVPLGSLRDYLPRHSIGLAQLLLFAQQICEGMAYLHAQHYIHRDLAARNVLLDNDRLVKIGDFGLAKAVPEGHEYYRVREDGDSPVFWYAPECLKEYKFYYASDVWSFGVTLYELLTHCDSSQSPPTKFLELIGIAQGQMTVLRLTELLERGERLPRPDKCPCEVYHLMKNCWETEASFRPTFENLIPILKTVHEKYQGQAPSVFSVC
Method: as §1

[10] = target: Fyn(h) (Homo sapiens (Human), UniProt P06241)
Method: as §1

[11] = target: Met(D1246N)(h) (Homo sapiens (Human), UniProt P08581, D1228N)
Method: as §1

[12] = target: CK1γ1(h) (Homo sapiens (Human), UniProt Q9HCP0)
Chain of CK1γ1(h) (Q9HCP0 whole entry): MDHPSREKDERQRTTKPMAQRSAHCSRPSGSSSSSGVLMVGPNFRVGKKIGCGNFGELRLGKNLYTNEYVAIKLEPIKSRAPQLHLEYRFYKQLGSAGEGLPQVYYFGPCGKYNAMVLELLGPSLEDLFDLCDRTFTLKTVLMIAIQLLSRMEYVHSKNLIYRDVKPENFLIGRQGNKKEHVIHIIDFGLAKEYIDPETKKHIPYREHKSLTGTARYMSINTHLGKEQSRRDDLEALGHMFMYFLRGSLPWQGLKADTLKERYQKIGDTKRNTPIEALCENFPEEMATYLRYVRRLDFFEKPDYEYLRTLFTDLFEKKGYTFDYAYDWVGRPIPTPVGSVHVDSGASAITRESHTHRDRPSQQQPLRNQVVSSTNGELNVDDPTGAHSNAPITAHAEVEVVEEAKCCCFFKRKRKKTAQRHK
Method: as §1

[13] = target: NUAK2(h) (Homo sapiens (Human), UniProt Q9H093)
Method: as §1

[14] = target: ARK5(h) (Homo sapiens (Human), UniProt O60285)
Method: as §1

[15] = target: PI3KC2a(h) (Homo sapiens (Human), UniProt O00443)
Method: as §1

[16] = target: PIP5K1g(h) (Homo sapiens (Human), UniProt O60331)
Method: as §1

[17] = target: PDK1(h) (Homo sapiens (Human), UniProt O15530)
Method: as §1

[18] = target: CDK18/cyclinY(h) (Homo sapiens (Human), UniProt Q07002)
Method: as §1

[19] = target: GRK2(h) (Homo sapiens (Human), UniProt P25098)
Method: as §1

[20] = target: DYRK1B(h) (Homo sapiens (Human), UniProt Q9Y463)
Method: as §1

[21] = target: GCN2(h) (Homo sapiens (Human), UniProt Q9P2K8)
Method: as §1

[22] = target: TAO3(h) (Homo sapiens (Human), UniProt Q9H2K8)
[23] = target: EphA8(h) (Homo sapiens (Human), UniProt P29322)
Method: as §1

[24] = target: SRMS(h) (Homo sapiens (Human), UniProt Q9H3Y6)
Method: as §1

[25] = target: ULK2(h) (Homo sapiens (Human), UniProt Q8IYT8)
Method: as §1

[26] = target: SAPK2b(h) (Homo sapiens (Human), UniProt Q15759)
Method: as §1

[27] = target: EphA4(h) (Homo sapiens (Human), UniProt P54764)
Method: as §1

[28] = target: DNA-PK(h) (Homo sapiens (Human), UniProt P78527)
Method: as §1

[29] = target: RIPK1(h) (Homo sapiens (Human), UniProt Q13546)
Method: as §1

[30] = target: FGFR2(h) (Homo sapiens (Human), UniProt P21802)
Chain of FGFR2(h) (P21802 22-821): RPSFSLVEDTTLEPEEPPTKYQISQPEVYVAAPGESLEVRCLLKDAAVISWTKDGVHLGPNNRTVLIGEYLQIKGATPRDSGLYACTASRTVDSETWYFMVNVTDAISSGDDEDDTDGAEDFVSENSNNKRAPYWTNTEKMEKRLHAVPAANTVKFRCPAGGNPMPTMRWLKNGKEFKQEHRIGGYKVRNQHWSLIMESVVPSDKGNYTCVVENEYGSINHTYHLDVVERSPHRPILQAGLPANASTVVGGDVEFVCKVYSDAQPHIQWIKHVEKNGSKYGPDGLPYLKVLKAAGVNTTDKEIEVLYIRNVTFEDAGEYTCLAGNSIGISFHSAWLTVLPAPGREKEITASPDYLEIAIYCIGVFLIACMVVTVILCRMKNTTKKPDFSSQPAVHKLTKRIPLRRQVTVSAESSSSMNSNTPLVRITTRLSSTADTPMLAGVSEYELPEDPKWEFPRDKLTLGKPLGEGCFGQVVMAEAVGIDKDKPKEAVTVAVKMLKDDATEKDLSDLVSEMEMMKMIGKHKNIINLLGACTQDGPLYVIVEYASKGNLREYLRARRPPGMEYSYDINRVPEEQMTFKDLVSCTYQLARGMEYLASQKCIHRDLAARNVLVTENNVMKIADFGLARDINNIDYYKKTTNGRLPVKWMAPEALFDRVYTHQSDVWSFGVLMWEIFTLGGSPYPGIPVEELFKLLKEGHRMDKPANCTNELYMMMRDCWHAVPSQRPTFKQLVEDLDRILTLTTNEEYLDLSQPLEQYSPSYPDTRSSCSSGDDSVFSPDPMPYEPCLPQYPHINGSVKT
Method: as §1

[31] = target: MEK2(h) (Homo sapiens (Human), UniProt P36507)
Chain of MEK2(h) (P36507 whole entry): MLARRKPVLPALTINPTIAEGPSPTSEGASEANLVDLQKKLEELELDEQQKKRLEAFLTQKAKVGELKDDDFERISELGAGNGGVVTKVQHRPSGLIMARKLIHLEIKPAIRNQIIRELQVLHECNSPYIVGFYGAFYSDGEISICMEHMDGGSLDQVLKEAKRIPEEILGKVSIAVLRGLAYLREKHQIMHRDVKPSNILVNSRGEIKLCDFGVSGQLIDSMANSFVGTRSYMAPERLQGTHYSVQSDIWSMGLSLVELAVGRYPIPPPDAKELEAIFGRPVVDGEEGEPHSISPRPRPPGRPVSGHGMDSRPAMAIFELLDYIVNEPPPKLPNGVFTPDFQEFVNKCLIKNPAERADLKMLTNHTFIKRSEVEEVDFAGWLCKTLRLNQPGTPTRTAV
Method: as §1

[32] = target: TAK1(h) (Homo sapiens (Human), UniProt O43318)
Method: as §1

[33] = target: MAPK2(h) (Homo sapiens (Human), UniProt P28482)
Chain of MAPK2(h) (P28482 whole entry): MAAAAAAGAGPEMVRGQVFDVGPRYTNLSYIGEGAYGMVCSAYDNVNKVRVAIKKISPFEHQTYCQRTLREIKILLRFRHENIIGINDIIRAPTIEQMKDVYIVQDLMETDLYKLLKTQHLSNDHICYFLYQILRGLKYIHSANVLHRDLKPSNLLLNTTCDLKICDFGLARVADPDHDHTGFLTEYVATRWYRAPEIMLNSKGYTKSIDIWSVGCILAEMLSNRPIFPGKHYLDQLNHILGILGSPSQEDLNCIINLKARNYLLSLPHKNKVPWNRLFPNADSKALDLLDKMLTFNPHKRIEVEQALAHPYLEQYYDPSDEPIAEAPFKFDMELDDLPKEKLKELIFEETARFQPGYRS
Method: as §1

[34] = target: CaMKIδ(h) (Homo sapiens (Human), UniProt Q8IU85)
Method: as §1

Chain of STK33(h) (Q9BYT3 whole entry): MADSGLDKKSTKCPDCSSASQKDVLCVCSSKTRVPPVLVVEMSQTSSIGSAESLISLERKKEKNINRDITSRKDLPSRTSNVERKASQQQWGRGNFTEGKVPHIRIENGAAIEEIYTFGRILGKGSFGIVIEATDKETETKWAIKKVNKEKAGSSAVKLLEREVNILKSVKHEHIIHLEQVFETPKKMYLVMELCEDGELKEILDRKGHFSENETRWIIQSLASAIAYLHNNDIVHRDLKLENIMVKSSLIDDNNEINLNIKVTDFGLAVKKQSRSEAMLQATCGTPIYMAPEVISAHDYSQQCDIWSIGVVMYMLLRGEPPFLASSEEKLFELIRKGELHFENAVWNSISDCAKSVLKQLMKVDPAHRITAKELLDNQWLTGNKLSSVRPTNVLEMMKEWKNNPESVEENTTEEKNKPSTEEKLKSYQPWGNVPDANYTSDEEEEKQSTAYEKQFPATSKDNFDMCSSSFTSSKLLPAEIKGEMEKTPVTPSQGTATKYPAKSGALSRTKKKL
Chain of SGK2(h) (Q9HBY8 whole entry): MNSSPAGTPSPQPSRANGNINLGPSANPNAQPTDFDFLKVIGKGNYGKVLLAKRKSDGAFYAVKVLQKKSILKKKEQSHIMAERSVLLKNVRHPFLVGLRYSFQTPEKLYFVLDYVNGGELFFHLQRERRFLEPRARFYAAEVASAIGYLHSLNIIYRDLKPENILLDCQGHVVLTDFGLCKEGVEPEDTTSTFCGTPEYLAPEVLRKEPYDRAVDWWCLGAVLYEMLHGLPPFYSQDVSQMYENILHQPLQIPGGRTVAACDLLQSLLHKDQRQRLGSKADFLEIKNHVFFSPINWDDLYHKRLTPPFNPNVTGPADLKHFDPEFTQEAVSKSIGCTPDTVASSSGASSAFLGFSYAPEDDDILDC
Chain of NEK7(h) (Q8TDX7 whole entry): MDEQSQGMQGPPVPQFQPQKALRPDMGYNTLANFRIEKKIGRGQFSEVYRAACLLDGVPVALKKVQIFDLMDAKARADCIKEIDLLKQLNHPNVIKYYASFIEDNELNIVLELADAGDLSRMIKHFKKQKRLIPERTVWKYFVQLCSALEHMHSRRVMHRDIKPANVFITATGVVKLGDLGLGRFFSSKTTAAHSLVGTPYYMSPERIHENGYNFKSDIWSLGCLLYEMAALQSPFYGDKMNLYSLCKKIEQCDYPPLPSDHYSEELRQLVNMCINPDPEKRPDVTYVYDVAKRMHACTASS

SMILES: C[C@H](NC(=O)c1c[nH]c2ccc(-c3ccc4nc(NC(=O)C5CC5)sc4c3)cc12)c1cccc(F)c1 [Compound 34, (S)-5-(2-(cyclopropanecarboxamido)benzo[d]thiazol-6-yl)-N-(1-(3-fluorophenyl)ethyl)-1H-indole-3-carboxamide]
- Inhibition ratio [1]: 17%
- Inhibition ratio [2]: 4%
- Inhibition ratio [3]: 4%
- Inhibition ratio [4]: 37%
- Inhibition ratio [5]: 2%
- Inhibition ratio [6]: 37%
- Inhibition ratio [7]: 2%
- Inhibition ratio [8]: 3%
- Inhibition ratio [9]: 12%
- Inhibition ratio [10]: 43%
- Inhibition ratio [11]: 86%
- Inhibition ratio [12]: 5%
- Inhibition ratio [13]: 9%
- Inhibition ratio [14]: 43%
- Inhibition ratio [15]: 16%
- Inhibition ratio [16]: 18%
- Inhibition ratio [17]: 19%
- Inhibition ratio [18]: 7%
- Inhibition ratio [19]: −1%
- Inhibition ratio [20]: 12%
- Inhibition ratio [21]: 14%
- Inhibition ratio [22]: 62%
- Inhibition ratio [23]: 85%
- Inhibition ratio [24]: 12%
- Inhibition ratio [25]: 13%
- Inhibition ratio [26]: 12%
- Inhibition ratio [27]: 14%
- Inhibition ratio [28]: 24%
- Inhibition ratio [29]: 100%
- Inhibition ratio [30]: 63%
- Inhibition ratio [31]: 8%
- Inhibition ratio [32]: 45%
- Inhibition ratio [33]: 11%
- Inhibition ratio [34]: 22%

SMILES: C[C@H](NC(=O)c1cn(C)c2ccc(-c3ccn4nc(NC(=O)C5CC5)nc4c3)cc12)c1cccc(F)c1 [Compound 94, (S)-5-(2-(cyclopropanecarboxamido)-[1,2,4]triazolo[1,5-a]pyridin-7-yl)-N-(1-(3-fluorophenyl)ethyl)-1-methyl-1H-indole-3-carboxamide]
- Inhibition ratio/% [1]: 48%
- Inhibition ratio/% [2]: 43%
- Inhibition ratio/% [3]: 23%
- Inhibition ratio/% [4]: −7%
- Inhibition ratio/% [5]: −18%
- Inhibition ratio/% [6]: 69%
- Inhibition ratio/% [7]: −15%
- Inhibition ratio/% [8]: −10%
- Inhibition ratio/% [9]: 50%
- Inhibition ratio/% [10]: −43%
- Inhibition ratio/% [11]: −11%
- Inhibition ratio/% [12]: 19%
- Inhibition ratio/% [13]: 30%
- Inhibition ratio/% [14]: 8%
- Inhibition ratio/% [15]: 40%
- Inhibition ratio/% [16]: −16%
- Inhibition ratio/% [17]: 18%
- Inhibition ratio/% [18]: 74%
- Inhibition ratio/% [19]: 53%
- Inhibition ratio/% [20]: −1%
- Inhibition ratio/% [21]: 23%
- Inhibition ratio/% [22]: 6%
- Inhibition ratio/% [23]: 4%
- Inhibition ratio/% [24]: 43%
- Inhibition ratio/% [25]: 55%
- Inhibition ratio/% [26]: 36%
- Inhibition ratio/% [27]: 11%
- Inhibition ratio/% [28]: 47%
- Inhibition ratio/% [29]: 100%
- Inhibition ratio/% [30]: −13%
- Inhibition ratio/% [31]: 13%
- Inhibition ratio/% [32]: 9%
- Inhibition ratio/% [33]: 40%
- Inhibition ratio/% [34]: 26%
